Results taken from US10441663B2, “Methods for treating cancer” (Bicycle Therapeutics Limited, priority 2016, dated 2019).
*1 amine or outer side, *2 acyl side, *3 side chain or, on linkers, in order; H or OH if unused. Where a SMILES comes first, the peptide text is derived from it. Bridges are numbered along the chain shown (N, C = ends). [ ]: non-standard residue; d: D form. The star is where a group is joined. X1 = COc1cc2cc(c1Cl)N(C)C(=O)C[C@H](OC(=O)[C@H](C)N(C)C(=O)CCSSC(C)CCC(=O)*)[C@]1(C)O[C@H]1[C@H](C)[C@@H]1C[C@@](O)(NC(=O)O1)[C@H](OC)/C=C/C=C(\C)C2; 1Nal = N[C@@H](Cc1cccc2ccccc12)C(=O)O; TBMB = c1c(C[*:1])cc(C[*:3])cc1C[*:2]; Tle = CC(C)(C)[C@H](N)C(=O)O; βAla = NCCC(=O)O; Sar = CNCC(=O)O

How the values were obtained:
NCI-H1975 xenograft = assay: In vivo efficacy of BT1718 in NCI-H1975 xenograft; set-up: species or system Mus Musculus; key to Best response at 10 mg/kg: CR complete response; PR partial response
Experimental: The objective of this study was to evaluate the in vivo anti-tumor efficacy of BT1718in treatment of HT1080, NCI-H292, NCI-H1975, MDA-MB-231, HCC1806, RPMI2650, HCT-15, HT-29 and SNU-16 xenograft in BALB/c nude mice.
The HT1080, NCI-H292, NCI-H1975, MDA-MB-231, HCC1806, RPMI2650, HCT-15, HT-29 and SNU-16 tumor cells were maintained in vitro as a monolayer culture in medium supplemented with 10% heat inactivated fetal bovine serum at 37° C. in an […]. The tumor cells will be routinely subcultured twice weekly by trypsin-EDTA treatment. The cells growing in an exponential growth phase will be harvested and counted for tumor inoculation.
Mouse was inoculated subcutaneously at the right flank with tumor cells for tumor development. The animals were randomized and treatment was started when the average tumor reaches certain volume for the efficacy study, the inoculating cell amounts and starting tumor size were shown as below in Table 9. The test article administration and the animal numbers in each group were shown in the experimental design in Table 10.
All the procedures related to animal handling, care and the treatment in the study were performed according to the guidelines of the Association for Assessment and Accreditation of Laboratory Animal Care (AAALAC). At the time of routine monitoring, the animals were daily checked for any effects of tumor growth and treatments on normal behavior such as mobility, food and water consumption (by looking only), body weight gain/loss (body weights were measured every day), eye/hair matting and any other abnormal effect as stated in the protocol. Death and observed clinical signs were recorded on the basis of the numbers of animals within each subset.
The major endpoint was to see if the tumor growth could be delayed or mice could be cured. Tumor size was measured three times weekly in two dimensions using a caliper, and the volume was expressed in mm^3 using the formula: V=0.5 a×b^2 where a and b are the long and short diameters of the tumor, respectively. The tumor size was then used for calculations of T/C value. The T/C value (in percent) is an indication of antitumor effectiveness; T and C are the mean volumes of the treated and control groups, respectively, on a given day.
TGI was calculated for each group using the formula: TGI (%)=[1−(Ti−T0)/(Vi−V0)]×100; Ti is the average tumor volume of a treatment group on a given day, T0 is the average tumor volume of the treatment group on the day of treatment start, Vi is the average tumor volume of the vehicle control group on the same day with Ti, and V0 is the average tumor volume of the vehicle group on the day of treatment start.
Summary statistics, including mean and the standard error of the mean (SEM), are provided for the tumor volume of each group at each time point.
Statistical analysis of difference in tumor volume among the groups was conducted on the data obtained at the best therapeutic time point after the final dose.
A one-way ANOVA was performed to compare tumor volume among groups, and when a significant F-statistics (a ratio of treatment variance to the error variance) was obtained, comparisons between groups were carried out with Games-Howell test. All data were analyzed using Prism. P<0.05 was considered to be statistically significant.

[1] = system: MT1-positive tumor xenograft models (e.g. HT1080 fibrosarcoma; HCC1806 triple negative breast cancer; SNU-16 gastric cancer); assay: Selection of MT1-positive tumor xenograft models; format: in vivo
Text: Efficacy in this model was reduced in the conjugates containing the least cleavable linkers.

COc1cc2cc(c1Cl)N(C)C(=O)C[C@H](OC(=O)[C@H](C)N(C)C(=O)CCSSC(C)CCC(=O)NCCC(=O)N(C)CC(=O)N(C)CC(=O)N(C)CC(=O)N(C)CC(=O)N(C)CC(=O)N(C)CC(=O)N(C)CC(=O)N(C)CC(=O)N(C)CC(=O)N(C)CC(=O)N[C@@H](C)C(=O)N[C@H]1CSCc3cc4cc(c3)CSC[C@H](NC(=O)[C@@H](C)NC(=O)[C@H](Cc3cccc5ccccc35)NC(=O)[C@H](CCC(=O)O)NC(=O)[C@H](CC(N)=O)NC(=O)[C@@H](C)NC1=O)C(=O)N[C@@H](CCC(=O)O)C(=O)N[C@@H](CC(=O)O)C(=O)N[C@@H](Cc1ccccc1)C(=O)N[C@@H](Cc1ccc(O)cc1)C(=O)N[C@@H](CC(=O)O)C(=O)N[C@@H](C(C)(C)C)C(=O)N[C@H](C(N)=O)CSC4)[C@]1(C)O[C@H]1[C@H](C)[C@@H]1C[C@@](O)(NC(=O)O1)[C@H](OC)/C=C/C=C(\C)C2 (stereo partly drawn) [BT1718] ({X1-βAla}-[Sar][Sar][Sar][Sar][Sar][Sar][Sar][Sar][Sar][Sar]AC[dA]NE[1Nal][dA]CEDFYD[Tle]C-NH2; linker 12-18-25 via TBMB (inferred))
Body Weight (NCI-H1975 xenograft; 1 mpk biw, day 0): 23.9 ± 0.7 g | Tumor Volume (NCI-H1975 xenograft; 1 mpk biw, day 0): 170 ± 9 mm^3 | Body Weight (NCI-H1975 xenograft; 1 mpk biw, day 2): 23.5 ± 0.7 g | Tumor Volume (NCI-H1975 xenograft; 1 mpk biw, day 2): 224 ± 33 mm^3 | Body Weight (NCI-H1975 xenograft; 1 mpk biw, day 4): 24.0 ± 0.9 g | Tumor Volume (NCI-H1975 xenograft; 1 mpk biw, day 4): 352 ± 69 mm^3 | Body Weight (NCI-H1975 xenograft; 1 mpk biw, day 7): 24.4 ± 0.7 g | Tumor Volume (NCI-H1975 xenograft; 1 mpk biw, day 7): 587 ± 134 mm^3 | Body Weight (NCI-H1975 xenograft; 1 mpk biw, day 9): 24.6 ± 0.8 g | Tumor Volume (NCI-H1975 xenograft; 1 mpk biw, day 9): 840 ± 155 mm^3 | Body Weight (NCI-H1975 xenograft; 1 mpk biw, day 11): 25.2 ± 1.1 g | Tumor Volume (NCI-H1975 xenograft; 1 mpk biw, day 11): 1265 ± 144 mm^3 | Body Weight (NCI-H1975 xenograft; 1 mpk biw, day 14): 26.0 ± 1.0 g | Tumor Volume (NCI-H1975 xenograft; 1 mpk biw, day 14): 1455 ± 130 mm^3 | Body Weight (NCI-H1975 xenograft; 3 mpk biw, day 0): 23.6 ± 0.4 g | Tumor Volume (NCI-H1975 xenograft; 3 mpk biw, day 0): 166 ± 13 mm^3 | Body Weight (NCI-H1975 xenograft; 3 mpk biw, day 2): 23.6 ± 0.5 g | Tumor Volume (NCI-H1975 xenograft; 3 mpk biw, day 2): 241 ± 20 mm^3 | Body Weight (NCI-H1975 xenograft; 3 mpk biw, day 4): 24.0 ± 0.8 g | Tumor Volume (NCI-H1975 xenograft; 3 mpk biw, day 4): 377 ± 38 mm^3 | Body Weight (NCI-H1975 xenograft; 3 mpk biw, day 7): 24.8 ± 0.8 g | Tumor Volume (NCI-H1975 xenograft; 3 mpk biw, day 7): 605 ± 84 mm^3 | Body Weight (NCI-H1975 xenograft; 3 mpk biw, day 9): 24.4 ± 0.9 g | Tumor Volume (NCI-H1975 xenograft; 3 mpk biw, day 9): 732 ± 95 mm^3 | Body Weight (NCI-H1975 xenograft; 3 mpk biw, day 11): 25.1 ± 0.8 g | Tumor Volume (NCI-H1975 xenograft; 3 mpk biw, day 11): 1095 ± 207 mm^3 | Body Weight (NCI-H1975 xenograft; 3 mpk biw, day 14): 25.0 ± 0.7 g | Tumor Volume (NCI-H1975 xenograft; 3 mpk biw, day 14): 1343 ± 349 mm^3 | Body Weight (NCI-H1975 xenograft; 10 mpk biw, day 0): 23.3 ± 1.4 g | Tumor Volume (NCI-H1975 xenograft; 10 mpk biw, day 0): 168 ± 6 mm^3 | Body Weight (NCI-H1975 xenograft; 10 mpk biw, day 2): 22.5 ± 1.7 g | Tumor Volume (NCI-H1975 xenograft; 10 mpk biw, day 2): 209 ± 31 mm^3 | Body Weight (NCI-H1975 xenograft; 10 mpk biw, day 4): 22.4 ± 1.7 g | Tumor Volume (NCI-H1975 xenograft; 10 mpk biw, day 4): 269 ± 23 mm^3 | Body Weight (NCI-H1975 xenograft; 10 mpk biw, day 7): 22.6 ± 1.9 g | Tumor Volume (NCI-H1975 xenograft; 10 mpk biw, day 7): 419 ± 22 mm^3 | Body Weight (NCI-H1975 xenograft; 10 mpk biw, day 9): 22.4 ± 1.8 g | Tumor Volume (NCI-H1975 xenograft; 10 mpk biw, day 9): 442 ± 23 mm^3 | Body Weight (NCI-H1975 xenograft; 10 mpk biw, day 11): 22.3 ± 1.9 g | Tumor Volume (NCI-H1975 xenograft; 10 mpk biw, day 11): 442 ± 26 mm^3 | Body Weight (NCI-H1975 xenograft; 10 mpk biw, day 14): 22.7 ± 2.0 g | Tumor Volume (NCI-H1975 xenograft; 10 mpk biw, day 14): 421 ± 31 mm^3 | Best response at 10 mg/kg (NCI-H1975 xenograft; NCI-H1975, 10 mg/kg): CR | TGI (NCI-H1975 xenograft; NCI-H1975, 1 mpk, biw, day 14): 3.0% | Tumor Volume (NCI-H1975 xenograft; NCI-H1975, 1 mpk, biw, day 14): 1455 ± 130 mm^3 | TGI (NCI-H1975 xenograft; NCI-H1975, 3 mpk, biw, day 14): 11.2% | Tumor Volume (NCI-H1975 xenograft; NCI-H1975, 3 mpk, biw, day 14): 1343 ± 349 mm^3 | TGI (NCI-H1975 xenograft; NCI-H1975, 10 mpk, biw, day 14): 80.9% | Tumor Volume (NCI-H1975 xenograft; NCI-H1975, 10 mpk, biw, day 14): 421 ± 31 mm^3 | Minimally Effective Dose IV BIW (NCI-H1975 xenograft; NCI-H1975, dose leading to tumor-stasis): <10 mg/kg | tumor volume after regression (NCI-H1975 xenograft; after 4 weeks 10 mg/kg biw): below 50 mm3 | body weight effect (NCI-H1975 xenograft; at PG-D40): marked body weight lost | tumor response ([1]; 10 mg/kg twice weekly): complete regressions in most models | minimally effective doses ([1]; weekly or twice weekly): 3 to 10 mg/kg
